Here are results for one compound from ChEMBL document CHEMBL5705898 (Proc Natl Acad Sci U S A, 2014).

In brackets after ≈: the same amount, converted by molar mass.

Data set [1] concerns the target T1, Histone-lysine N-methyltransferase SETD7 (Homo sapiens, UniProt Q8WTS6).
T1 sequence (Q8WTS6 whole entry): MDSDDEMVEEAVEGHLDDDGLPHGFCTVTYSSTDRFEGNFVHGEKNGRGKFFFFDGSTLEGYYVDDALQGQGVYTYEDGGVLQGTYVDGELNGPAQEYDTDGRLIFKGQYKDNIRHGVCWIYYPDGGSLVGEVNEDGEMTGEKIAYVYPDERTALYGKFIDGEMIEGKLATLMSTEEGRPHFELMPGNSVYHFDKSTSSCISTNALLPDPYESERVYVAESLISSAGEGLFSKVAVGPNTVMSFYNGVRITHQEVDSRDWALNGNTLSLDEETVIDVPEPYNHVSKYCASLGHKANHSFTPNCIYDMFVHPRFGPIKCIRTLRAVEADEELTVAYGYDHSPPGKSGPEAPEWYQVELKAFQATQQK
In words: Inhibition of wildtype full length human SETD7 (1 to 366 residues) expressed in Escherichia coli BL21 (DE3) V2R-pRARE using biotinylated H3 (1-25) peptide as substrate incubated for 1 hrs in presence of 3H-SAM by radioactivity based assay.

Data set [2] concerns the target T1, Histone-lysine N-methyltransferase SETD7. In words: Binding affinity to biotinylated SETD7 (unknown origin) assessed as dissociation constant in presence of SAM in flow and wash buffer by SPR analysis. In general terms: SPR reads the build-up and loss of mass on a sensor chip optically.
Data set [3] in a line: Aqueous solubility of compound. Type of data set: physicochemical. The settings on record: buffer.
The next data set relates to U2OS. In words: Cytotoxicity against human U2OS cells assessed as reduction in cell viability at <50 uM by alamar blue assay. It counts as toxicity, cell-based.
For data set [4], the target named is Apelin receptor (Homo sapiens) (UniProt P35414). Briefly: Inhibition of human APJ at 10 uM relative to control.
Data set [5] deals with Glutamate receptor ionotropic AMPA (Homo sapiens) (UniProt P48058+P42263+P42262+P42261). Briefly: Inhibition of human AMPA receptor at 10 uM relative to control. It counts as protein-complex assay.
The target in data set [6] is Muscarinic acetylcholine receptor M2 (Homo sapiens) (UniProt P08172). Briefly: Inhibition of human M2 receptor at 10 uM relative to control.
The target of data set [7] is Prostaglandin F2-alpha receptor (Homo sapiens) (UniProt P43088). Briefly: Inhibition of human FP receptor at 10 uM relative to control.
For data set [8], the target named is Prostacyclin receptor (Homo sapiens) (UniProt P43119). Briefly: Inhibition of human IP (PGI2) receptor at 10 uM relative to control.
Data set [9] has as its target 5-hydroxytryptamine receptor 1B (Homo sapiens) (UniProt P28222). Briefly: Inhibition of 5-HT1B receptor (unknown origin) at 10 uM relative to control.
The species entered for the next data set is Homo sapiens. Briefly: Inhibition of human 5-HT3 receptor at 10 uM relative to control.
Data set [10] concerns the target Vasoactive intestinal polypeptide receptor 1 (Homo sapiens) (UniProt P32241). Briefly: Inhibition of human VPAC1 at 10 uM relative to control.
Data set [11] addresses cGMP-dependent 3',5'-cyclic phosphodiesterase (Homo sapiens) (UniProt O00408). Briefly: Inhibition of human PDE2A1 at 10 uM relative to control.
Data set [12] deals with Neprilysin (Homo sapiens) (UniProt P08473). In words: Inhibition of human neutral endopeptidase at 10 uM relative to control.
Data set [13] deals with Matrix metalloproteinase-9 (Homo sapiens) (UniProt P14780). In words: Inhibition of human MMP-9 at 10 uM relative to control.
Data set [14] deals with Mitogen-activated protein kinase 1 (Homo sapiens) (UniProt P28482). Briefly: Inhibition of human ERK2 (P42mapk) at 10 uM relative to control.
Data set [15] has as its target Tyrosine-protein kinase Lyn (Homo sapiens) (UniProt P07948). Briefly: Inhibition of human Lyn A kinase at 10 uM relative to control.
In data set [16] the target is xanthine oxidase (Xanthine dehydrogenase/oxidase) (Homo sapiens, UniProt P47989). Briefly: Inhibition of xanthine oxidase (unknown origin) at 10 uM relative to control.
Data set [17] in a line: Inhibition of Ca2+ channel L, diltiazem site (unknown origin). Further details: species or system Homo sapiens.
Data set [18] concerns the target Histone-lysine N-methyltransferase SETD7 (Homo sapiens) (UniProt Q8WTS6). The settings on record: HEK293, dose 10.0 µM.

Tyrosine-protein kinase Lyn (Homo sapiens), sequence (P07948 2-512 limits assumed): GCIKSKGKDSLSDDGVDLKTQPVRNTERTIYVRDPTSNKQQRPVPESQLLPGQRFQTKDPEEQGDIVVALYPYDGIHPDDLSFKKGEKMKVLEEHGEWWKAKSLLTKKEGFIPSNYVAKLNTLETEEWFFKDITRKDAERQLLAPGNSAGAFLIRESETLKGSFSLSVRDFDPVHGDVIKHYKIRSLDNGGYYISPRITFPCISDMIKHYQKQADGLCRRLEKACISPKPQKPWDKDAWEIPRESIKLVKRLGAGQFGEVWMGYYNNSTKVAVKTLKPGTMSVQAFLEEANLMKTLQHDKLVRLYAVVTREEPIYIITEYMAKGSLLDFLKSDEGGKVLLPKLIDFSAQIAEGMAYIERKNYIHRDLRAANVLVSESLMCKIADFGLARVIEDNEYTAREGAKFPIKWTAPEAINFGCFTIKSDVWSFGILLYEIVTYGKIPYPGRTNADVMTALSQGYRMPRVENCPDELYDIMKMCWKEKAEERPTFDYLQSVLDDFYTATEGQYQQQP
Prostacyclin receptor (Homo sapiens), sequence (P43119 whole entry): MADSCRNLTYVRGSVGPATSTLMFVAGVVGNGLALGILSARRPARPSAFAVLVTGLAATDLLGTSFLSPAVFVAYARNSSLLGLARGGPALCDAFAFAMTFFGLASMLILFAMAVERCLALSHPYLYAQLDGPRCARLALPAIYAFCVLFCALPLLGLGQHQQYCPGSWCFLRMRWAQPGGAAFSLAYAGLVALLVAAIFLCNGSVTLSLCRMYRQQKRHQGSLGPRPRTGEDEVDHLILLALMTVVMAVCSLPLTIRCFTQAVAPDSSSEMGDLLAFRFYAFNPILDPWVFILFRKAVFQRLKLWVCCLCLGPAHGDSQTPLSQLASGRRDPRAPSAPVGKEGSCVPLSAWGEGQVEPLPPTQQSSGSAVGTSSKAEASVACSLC
5-hydroxytryptamine receptor 1B (Homo sapiens), sequence (P28222 whole entry): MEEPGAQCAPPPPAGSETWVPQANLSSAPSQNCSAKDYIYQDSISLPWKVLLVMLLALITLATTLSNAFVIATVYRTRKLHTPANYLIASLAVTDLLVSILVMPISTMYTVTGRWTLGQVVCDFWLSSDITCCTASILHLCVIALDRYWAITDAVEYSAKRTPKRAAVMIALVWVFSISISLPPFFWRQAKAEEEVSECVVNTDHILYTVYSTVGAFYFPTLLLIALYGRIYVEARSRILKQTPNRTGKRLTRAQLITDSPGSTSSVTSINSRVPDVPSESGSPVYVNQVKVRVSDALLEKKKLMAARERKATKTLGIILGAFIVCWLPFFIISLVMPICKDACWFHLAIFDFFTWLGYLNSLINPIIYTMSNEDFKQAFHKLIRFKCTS
Muscarinic acetylcholine receptor M2 (Homo sapiens), sequence (P08172 whole entry): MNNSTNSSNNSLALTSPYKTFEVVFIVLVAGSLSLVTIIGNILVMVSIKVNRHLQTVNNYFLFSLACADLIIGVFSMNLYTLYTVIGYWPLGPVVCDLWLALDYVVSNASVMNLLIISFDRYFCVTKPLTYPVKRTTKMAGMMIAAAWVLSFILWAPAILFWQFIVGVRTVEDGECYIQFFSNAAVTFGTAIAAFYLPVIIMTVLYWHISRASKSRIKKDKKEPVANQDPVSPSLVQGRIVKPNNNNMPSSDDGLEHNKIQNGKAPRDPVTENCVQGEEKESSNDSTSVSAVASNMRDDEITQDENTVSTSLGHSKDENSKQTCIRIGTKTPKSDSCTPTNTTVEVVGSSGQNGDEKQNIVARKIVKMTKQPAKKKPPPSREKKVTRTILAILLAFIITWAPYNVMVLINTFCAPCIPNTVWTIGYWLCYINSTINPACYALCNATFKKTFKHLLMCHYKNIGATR
Prostaglandin F2-alpha receptor (Homo sapiens), sequence (P43088 whole entry): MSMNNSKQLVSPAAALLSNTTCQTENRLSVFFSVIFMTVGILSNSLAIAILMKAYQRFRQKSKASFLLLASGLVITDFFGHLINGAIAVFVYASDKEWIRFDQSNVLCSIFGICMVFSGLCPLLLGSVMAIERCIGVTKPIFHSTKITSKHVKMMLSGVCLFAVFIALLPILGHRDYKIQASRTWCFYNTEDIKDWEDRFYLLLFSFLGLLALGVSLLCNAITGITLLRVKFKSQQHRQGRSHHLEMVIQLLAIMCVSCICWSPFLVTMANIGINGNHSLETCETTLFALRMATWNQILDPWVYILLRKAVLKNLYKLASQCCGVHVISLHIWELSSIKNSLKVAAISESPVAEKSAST
Vasoactive intestinal polypeptide receptor 1 (Homo sapiens), sequence (P32241 whole entry): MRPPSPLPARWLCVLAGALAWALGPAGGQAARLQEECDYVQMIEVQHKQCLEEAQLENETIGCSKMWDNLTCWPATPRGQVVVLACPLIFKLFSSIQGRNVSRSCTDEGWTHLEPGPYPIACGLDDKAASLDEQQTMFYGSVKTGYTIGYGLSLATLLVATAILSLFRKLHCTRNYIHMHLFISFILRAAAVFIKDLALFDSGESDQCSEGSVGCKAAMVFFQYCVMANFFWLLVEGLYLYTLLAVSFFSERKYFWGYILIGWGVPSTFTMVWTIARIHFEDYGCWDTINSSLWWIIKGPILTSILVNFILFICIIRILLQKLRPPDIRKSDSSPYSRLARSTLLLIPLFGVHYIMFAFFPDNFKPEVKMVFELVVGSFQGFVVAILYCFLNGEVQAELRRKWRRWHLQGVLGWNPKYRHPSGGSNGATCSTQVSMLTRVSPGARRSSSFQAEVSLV
Apelin receptor (Homo sapiens), sequence (P35414 whole entry): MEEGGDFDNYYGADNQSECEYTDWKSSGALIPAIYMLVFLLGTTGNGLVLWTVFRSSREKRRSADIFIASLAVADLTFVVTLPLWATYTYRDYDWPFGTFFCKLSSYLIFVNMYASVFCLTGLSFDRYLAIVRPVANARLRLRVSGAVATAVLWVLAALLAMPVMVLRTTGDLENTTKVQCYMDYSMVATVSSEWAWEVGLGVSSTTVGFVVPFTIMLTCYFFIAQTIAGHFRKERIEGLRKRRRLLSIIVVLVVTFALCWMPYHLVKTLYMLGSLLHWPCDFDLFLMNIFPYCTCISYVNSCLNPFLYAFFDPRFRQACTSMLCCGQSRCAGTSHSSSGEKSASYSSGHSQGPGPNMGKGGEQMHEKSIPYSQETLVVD
Neprilysin (Homo sapiens), sequence (P08473 whole entry): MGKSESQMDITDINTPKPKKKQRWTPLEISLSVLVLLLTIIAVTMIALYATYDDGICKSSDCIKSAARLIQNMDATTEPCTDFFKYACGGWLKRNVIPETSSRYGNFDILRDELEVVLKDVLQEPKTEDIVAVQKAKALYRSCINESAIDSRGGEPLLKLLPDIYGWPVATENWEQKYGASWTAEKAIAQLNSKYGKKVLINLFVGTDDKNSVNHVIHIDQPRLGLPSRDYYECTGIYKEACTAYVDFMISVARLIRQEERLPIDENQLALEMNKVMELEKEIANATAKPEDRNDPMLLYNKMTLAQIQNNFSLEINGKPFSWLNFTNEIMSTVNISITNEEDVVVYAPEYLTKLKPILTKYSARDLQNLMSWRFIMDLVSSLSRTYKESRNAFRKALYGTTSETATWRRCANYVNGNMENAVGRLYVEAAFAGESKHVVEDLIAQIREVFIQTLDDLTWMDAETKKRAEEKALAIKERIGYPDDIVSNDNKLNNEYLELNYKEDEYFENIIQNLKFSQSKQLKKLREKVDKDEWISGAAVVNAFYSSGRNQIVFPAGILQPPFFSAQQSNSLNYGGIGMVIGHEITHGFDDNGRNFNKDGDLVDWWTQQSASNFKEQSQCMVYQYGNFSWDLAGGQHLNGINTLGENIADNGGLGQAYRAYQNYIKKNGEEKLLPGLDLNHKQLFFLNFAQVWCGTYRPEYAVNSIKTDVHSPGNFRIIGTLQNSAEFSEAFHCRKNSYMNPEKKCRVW
cGMP-dependent 3',5'-cyclic phosphodiesterase (Homo sapiens), sequence (O00408 whole entry): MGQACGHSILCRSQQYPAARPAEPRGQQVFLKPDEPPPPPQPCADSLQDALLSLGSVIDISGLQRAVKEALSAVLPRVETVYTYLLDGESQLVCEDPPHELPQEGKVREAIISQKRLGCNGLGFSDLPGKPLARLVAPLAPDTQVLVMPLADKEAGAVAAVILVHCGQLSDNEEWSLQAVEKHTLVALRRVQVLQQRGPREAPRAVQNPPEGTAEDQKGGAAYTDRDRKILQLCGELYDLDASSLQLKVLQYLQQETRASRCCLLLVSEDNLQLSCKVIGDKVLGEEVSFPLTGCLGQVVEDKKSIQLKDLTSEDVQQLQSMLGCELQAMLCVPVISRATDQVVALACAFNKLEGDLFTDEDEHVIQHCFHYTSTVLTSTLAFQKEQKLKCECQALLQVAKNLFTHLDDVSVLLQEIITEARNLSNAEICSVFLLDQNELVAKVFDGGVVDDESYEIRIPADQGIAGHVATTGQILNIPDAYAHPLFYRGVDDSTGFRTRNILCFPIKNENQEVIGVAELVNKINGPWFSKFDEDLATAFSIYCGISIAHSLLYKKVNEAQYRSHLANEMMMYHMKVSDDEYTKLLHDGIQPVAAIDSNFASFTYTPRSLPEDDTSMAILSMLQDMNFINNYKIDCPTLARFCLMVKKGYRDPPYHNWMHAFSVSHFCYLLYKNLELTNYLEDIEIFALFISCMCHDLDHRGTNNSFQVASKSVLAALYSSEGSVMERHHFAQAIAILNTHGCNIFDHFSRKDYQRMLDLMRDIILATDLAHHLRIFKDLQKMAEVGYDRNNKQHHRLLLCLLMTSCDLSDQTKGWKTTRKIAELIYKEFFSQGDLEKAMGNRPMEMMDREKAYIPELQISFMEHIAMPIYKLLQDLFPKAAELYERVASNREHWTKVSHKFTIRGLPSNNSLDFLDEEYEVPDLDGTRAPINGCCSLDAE
Mitogen-activated protein kinase 1 (Homo sapiens), sequence (P28482 whole entry): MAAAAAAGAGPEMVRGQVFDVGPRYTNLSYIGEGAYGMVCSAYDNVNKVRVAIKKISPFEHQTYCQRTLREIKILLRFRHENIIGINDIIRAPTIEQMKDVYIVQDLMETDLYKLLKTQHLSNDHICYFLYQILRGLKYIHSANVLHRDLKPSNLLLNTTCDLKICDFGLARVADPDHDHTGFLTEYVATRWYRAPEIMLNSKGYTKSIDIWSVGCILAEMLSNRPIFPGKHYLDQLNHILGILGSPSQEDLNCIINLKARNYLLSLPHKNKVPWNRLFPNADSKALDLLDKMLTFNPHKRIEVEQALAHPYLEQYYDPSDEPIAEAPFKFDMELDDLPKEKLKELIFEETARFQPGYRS

Turning to `O=C([C@@H](Cc1cccc(C(F)(F)F)c1)NS(=O)(=O)c1cc(F)c2c(c1)CCNC2)N1CCCC1`, the IC50 in [1] is 2 nM; in data set [17], 14000 nM. Besides, the Kd in [2] was 4.2 nM. Further, the concentration in solution in data set [3] (solubility) was 285 µM (≈ 142 µg/mL). Moreover, the Activity entry in the data set on U2OS was “Non-Toxic”. For the same compound, the inhibition in data set [4] was -5%; in data set [5], 2%; in data set [6], 3%; in data set [7], 3%; in [8], -7%; in data set [9], 7%. For the same compound, the inhibition was -2% in the data set listed under Homo sapiens; -8% in data set [10]; -2% in data set [11]; -6% in data set [12]; -9% in [13]; 5% in data set [14]. Also, the inhibition in [15] was 14%. In addition, the inhibition at 10 µM in data set [16] was 4%. In [18], the deltaT came to 4 °C.

In general, IC50 refers to the concentration that gives 50% inhibition. Usually Kd stands for a measure of binding affinity in units of concentration. As usually defined, the solubility is how much of the substance goes into solution per volume. By inhibition is commonly meant the change of the read-out against control, counted positive when it falls.
